# Measured values: patent US4147861A, “1N-(α-Hydroxy-ω-aminoalkanoyl)- 6'N-methyl-3',4'-dideoxykanamycin B and the production thereof” (Zaidan Hojin Biseibutsu Kagaku Kenkyu Kai, priority 1977, dated 1979)
# Tests used:
# [1] = tested on: Bacillus subtilis NRRL B-558; experiment: Minimum inhibitory concentration, serial dilution method on nutrient agar; format: cell-based; details: NRRLB558, 37° C., 18 hours, read-out: Minimum Inhibitory Concentrations
# [2] = tested on: Escherichia coli LA290 R64; experiment: as above; format: cell-based; details: LA290R64, 18 h, read-out: Minimum Inhibitory Concentrations
# [3] = tested on: Salmonella enteritidis 1891; experiment: as above; format: cell-based; details: Salmonella enterica, ENTERITIDIS, 18 h, read-out: Minimum Inhibitory Concentrations
# [4] = tested on: Escherichia coli LA290 R55; experiment: as above; format: cell-based; details: LA290R55, 18 h, read-out: Minimum Inhibitory Concentrations
# Escherichia coli K-12 = experiment: as above; format: cell-based; details: Escherichia coli, K12, 18 h, read-out: Minimum Inhibitory Concentrations
# Sarcina lutea PCI 1001 = experiment: as above; format: cell-based; details: Micrococcus luteus, PCI1001, 18 h, read-out: Minimum Inhibitory Concentrations
# Escherichia coli K-12 R5 = experiment: as above; format: cell-based; details: K12R5, 18 h, read-out: Minimum Inhibitory Concentrations
# Salmonella typhosa T-63 = experiment: as above; format: cell-based; details: Salmonella enterica, 18 h, read-out: Minimum Inhibitory Concentrations
# [5] = tested on: Shigella dysenteriae JS 11910; experiment: as above; format: cell-based; details: JS11910, 18 h, read-out: Minimum Inhibitory Concentrations
# [6] = tested on: Escherichia coli K-12 ML 1629; experiment: as above; format: cell-based; details: Escherichia coli, K12ML1629, 18 h, read-out: Minimum Inhibitory Concentrations
# [7] = tested on: Bacillus cereus ATCC 10702; experiment: as above; format: cell-based; details: Bacillus cereus, ATCC10702, 18 h, read-out: Minimum Inhibitory Concentrations
# [8] = tested on: Escherichia coli K-12 ML 1410 R81; experiment: as above; format: cell-based; details: 18 h, read-out: Minimum Inhibitory Concentrations
# [9] = tested on: Staphylococcus aureus FDA 209P; experiment: as above; format: cell-based; details: FDA209P, 37° C., 18 hours, read-out: Minimum Inhibitory Concentrations
# Proteus vulgaris OX 19 = experiment: as above; format: cell-based; details: Proteus vulgaris, OX19, 18 h, read-out: Minimum Inhibitory Concentrations
# Bacillus anthracis = experiment: microbe, parasite or virus in culture; format: cell-based; details: 18 h, read-out: Minimum Inhibitory Concentrations
# [10] = tested on: Staphylococcus aureus Terajima; experiment: Minimum inhibitory concentration, serial dilution method on nutrient agar; format: cell-based; details: 37° C., 18 hours, read-out: Minimum Inhibitory Concentrations
# Staphylococcus aureus = experiment: as above; format: cell-based; details: 37° C., 18 hours, read-out: Minimum Inhibitory Concentrations
# [11] = tested on: Pseudomonas aeruginosa No. 12; experiment: as above; format: cell-based; details: Pseudomonas aeruginosa, NO.12, 18 h, read-out: Minimum Inhibitory Concentrations
# [12] = tested on: Pseudomonas aeruginosa 99; experiment: as above; format: cell-based; details: 37° C., 18 hours, read-out: Minimum Inhibitory Concentrations
# [13] = tested on: Escherichia coli JR66/W677; experiment: as above; format: cell-based; details: Escherichia coli, JR66/W677, 18 h, read-out: Minimum Inhibitory Concentrations
# [14] = tested on: Mycobacterium smegmatis ATCC 607; experiment: as above; format: cell-based; details: Mycolicibacterium smegmatis, ATCC607, 37° C., 18 hours, read-out: Minimum Inhibitory Concentrations
# Escherichia coli W677 = experiment: as above; format: cell-based; details: Escherichia coli, W677, 18 h, read-out: Minimum Inhibitory Concentrations
# [15] = tested on: Pseudomonas aeruginosa TI-13; experiment: as above; format: cell-based; details: TI13; Pseudomonas aeruginosa TI-13; 37° C., 18 hours; read-out: Minimum Inhibitory Concentrations
# [16] = tested on: Escherichia coli LA290 R56; experiment: as above; format: cell-based; details: LA290R56, 18 h, read-out: Minimum Inhibitory Concentrations
# [17] = tested on: Pseudomonas aeruginosa GN315; experiment: as above; format: cell-based; details: Pseudomonas aeruginosa GN315; 37° C., 18 hours; read-out: Minimum Inhibitory Concentrations
# [18] = tested on: Klebsiella pneumoniae PCT 602; experiment: as above; format: cell-based; details: Klebsiella pneumoniae, PCT602, 18 h, read-out: Minimum Inhibitory Concentrations
# [19] = tested on: Escherichia coli K-12 ML 1410; experiment: as above; format: cell-based; details: Escherichia coli, K12ML1410, 18 h, read-out: Minimum Inhibitory Concentrations
# Escherichia coli NIHJ = experiment: as above; format: cell-based; details: Escherichia coli, 18 h, read-out: Minimum Inhibitory Concentrations
# Shigella sonnei JS 11746 = experiment: as above; format: cell-based; details: JS11746, 37° C., 18 hours, read-out: Minimum Inhibitory Concentrations
# Protocol: (§1) The minimum inhibitory concentrations (mcg./ml.) of 1N-(DL-isoseryl)-6'N-methyl-3',4'-dideoxykanamycin B (abbreviated as DL-IS-MDKB); 1N-(L-isoseryl)-6'N-methyl-3',4'-dideoxykanamycin B (abbreviated as L-IS-MDKB); 1N-(L-4-amino-[…])-6'N-methyl-3',4'-dideoxykanamycin B (abbreviated as AHB-MDKB); and 1N-(L-5-amino-2-hydroxyvaleryl)-6'N-methyl-3',4'-dideoxykanamycin B (abbreviated as AHV-MDBK) against various organisms were determined according to serial dilution method using nutrient agar medium at 37° C., the readings being made after 18 hours incubation. For the comparison purpose, the minimum inhibitory concentrations (mcg./ml.) of 1 N-(L-4-amino-2-hydroxybutyryl)-kanamycin A (abbreviated as AHB-KMA) and 1N-([…])-kanamycin B (abbreviated as AHB-KMB) which are known from U.S. Pat. No. 3,781,268 were also determined by the same manner as stated above.
# [20] = tested on: Shigella flexneri 4b JS 11811; experiment: as above; format: cell-based; details: 4BJS11811, 37° C., 18 hours, read-out: Minimum Inhibitory Concentrations
# Protocol: as §1
# [21] = tested on: Pseudomonas aeruginosa A3; experiment: as above; format: cell-based; details: 37° C., 18 hours, read-out: Minimum Inhibitory Concentrations
# Protocol: as §1
# [22] = tested on: Escherichia coli K-12 ML 1630; experiment: as above; format: cell-based; details: K12ML1630, 37° C., 18 hours, read-out: Minimum Inhibitory Concentrations
# Protocol: as §1
# [23] = tested on: Klebsiella pneumoniae 22 No. 3038; experiment: as above; format: cell-based; details: 37° C., 18 hours, read-out: Minimum Inhibitory Concentrations
# Protocol: as §1
# [24] = tested on: Bacillus subtilis PCI 219; experiment: as above; format: cell-based; details: PCI219, 37° C., 18 hours, read-out: Minimum Inhibitory Concentrations
# [25] = tested on: Corynebacterium bovis 1810; experiment: as above; format: cell-based; details: Corynebacterium bovis, 1810, 18 h, read-out: Minimum Inhibitory Concentrations
# [26] = tested on: kanamycin-resistant bacteria; details: prior art statement; cited from earlier work
smiles,measurement,setting,value
"CNC[C@@H]1CC[C@@H](N)[C@@H](O[C@H]2[C@H](O)[C@@H](O[C@H]3O[C@H](CO)[C@@H](O)[C@H](N)[C@H]3O)[C@H](NC(=O)C(O)CN)C[C@@H]2N)O1 (mixture of isomers) [DL-IS-MDKB, 1N-(DL-isoseryl)-6'N-methyl-3',4'-dideoxykanamycin B]",MIC,[1],< 0.2 µg/mL
same,MIC,[2],0.78 µg/mL
same,MIC,[3],3.13 µg/mL
same,MIC,[4],3.13 µg/mL
same,MIC,Escherichia coli K-12,1.56 µg/mL
same,MIC,Sarcina lutea PCI 1001,6.25 µg/mL
same,MIC,Escherichia coli K-12 R5,3.13 µg/mL
same,MIC,Salmonella typhosa T-63,1.56 µg/mL
same,MIC,[5],6.25 µg/mL
same,MIC,[6],1.56 µg/mL
same,MIC,[7],3.13 µg/mL
same,MIC,[8],3.13 µg/mL
same,MIC,[9],0.78 µg/mL
same,MIC,Proteus vulgaris OX 19,1.56 µg/mL
same,MIC,Bacillus anthracis,< 0.2 µg/mL
same,MIC,[10],< 0.2 µg/mL
same,MIC,Staphylococcus aureus,< 0.2 µg/mL
same,MIC,[11],6.25 µg/mL
same,MIC,[12],25 µg/mL
same,MIC,[13],3.13 µg/mL
same,MIC,[14],0.39 µg/mL
same,MIC,Escherichia coli W677,1.56 µg/mL
same,MIC,[15],12.5 µg/mL
same,MIC,[16],0.78 µg/mL
same,MIC,[17],12.5 µg/mL
same,MIC,[18],1.56 µg/mL
same,MIC,[19],3.13 µg/mL
same,MIC,Escherichia coli NIHJ,1.56 µg/mL
same,MIC,Shigella sonnei JS 11746,3.13 µg/mL
same,MIC,[20],3.13 µg/mL
same,MIC,[21],3.13 µg/mL
same,MIC,[22],3.13 µg/mL
same,MIC,[23],3.13 µg/mL
same,MIC,[24],< 0.2 µg/mL
same,MIC,[25],3.13 µg/mL
"NC[C@@H]1CC[C@@H](N)[C@@H](O[C@H]2[C@H](O)[C@@H](O[C@H]3O[C@H](CO)[C@@H](O)[C@H](N)[C@H]3O)[C@H](N)C[C@@H]2N)O1 [3',4'-dideoxykanamycin B, 3',4'-Dideoxykanamycin B]",activity against kanamycin-resistant bacteria,[26],active against a large number of kanamycin-resistant bacteria
"CNC[C@@H]1CC[C@@H](N)[C@@H](O[C@H]2[C@H](O)[C@@H](O[C@H]3O[C@H](CO)[C@@H](O)[C@H](N)[C@H]3O)[C@H](N)C[C@@H]2N)O1 [6'N-methyl-3',4'-dideoxykanamycin B, 6'N-Methyl-3',4'-dideoxykanamycin B]",activity against kanamycin-resistant bacteria,[26],active against a large number of kanamycin-resistant bacteria
